Tested on: edema induced by carrageenin in rat paws
Assay: Carrageenin paw edema in rats
Type: in vivo
Settings: dose producing 50% reduction in edema vs non-treated controls, rats, read-out: Carrageenin paw edema-rats ED50

| Compound | ED50 [mg/kg] |
| --- | --- |
| O=C(O)c1cc(-n2c(-c3ccccc3)cc3c4ccccc4ccc32)ccc1O [3-(3-Carboxy-4-hydroxyphenyl)-2-phenylbenz[e]indole] | 90 |
| O=C(O)c1cc(-n2c(-c3ccccc3)cc3c2CCc2ccccc2-3)ccc1O [3-(3-Carboxy-4-hydroxyphenyl)-4,5-dihydro-2-phenylbenz[e]indole] | 63 |
| CC(=O)Oc1ccc(-n2c(-c3ccccc3)cc3c2CCc2ccccc2-3)cc1C(=O)O [3-(4-Acetoxy-3-carboxyphenyl)-4,5-dihydro-2-phenylbenz[e]indole] | 70 |
| CCCCC1C(=O)N(c2ccccc2)N(c2ccccc2)C1=O [Phenylbutazone, reference compound] | 83 |

Same assay, conditions: read-out: Carrageenin paw edema-rats ED50

| Compound | ED50 [mg/kg] |
| --- | --- |
| CC(=O)Oc1ccccc1C(=O)O [Aspirin, reference compound] | 130 to 140 |

Tested on: writhing induced in mice by 2-phenyl-1,4-benzoquinone
Assay: Phenylquinone (2-phenyl-1,4-benzoquinone) writhing in mice, analgesic activity
Type: in vivo
Settings: Mus musculus, read-out: Phenylquinone writhing-mice ED50
Source text: Exp. Biol. Med., 95, 729 (1957)]. The activity of several representative compounds of the present invention and of aspirin and phenylbutazone is expressed as ED50, the dose (mg/kg) of compound producing a 50% reduction in the number of writhes as compared to non-treated 2-phenyl-1,4-benzoquinone dosed controls.

| Compound | ED50 [mg/kg] |
| --- | --- |
| CC(=O)Oc1ccccc1C(=O)O [Aspirin, reference compound] | 53 |

Same assay, conditions: Mus musculus; dose producing 50% reduction in number of writhes vs non-treated controls; mice; read-out: Phenylquinone writhing-mice ED50

| Compound | ED50 [mg/kg] |
| --- | --- |
| O=C(O)c1cc(-n2c(-c3ccccc3)cc3c4ccccc4ccc32)ccc1O [3-(3-Carboxy-4-hydroxyphenyl)-2-phenylbenz[e]indole] | 16.5 |
| O=C(O)c1cc(-n2c(-c3ccccc3)cc3c2CCc2ccccc2-3)ccc1O [3-(3-Carboxy-4-hydroxyphenyl)-4,5-dihydro-2-phenylbenz[e]indole] | 10 |
| CC(=O)Oc1ccc(-n2c(-c3ccccc3)cc3c2CCc2ccccc2-3)cc1C(=O)O [3-(4-Acetoxy-3-carboxyphenyl)-4,5-dihydro-2-phenylbenz[e]indole] | 16.5 |
| CCCCC1C(=O)N(c2ccccc2)N(c2ccccc2)C1=O [Phenylbutazone, reference compound] | 89 |

Tested on: yeast-induced pyrexia in rats
Assay: Antipyretic assay, yeast-induced pyrexia in rats
Type: in vivo, female Charles River or Wistar rats
Settings: Rattus norvegicus; dose producing ≥ 1° reduction in rectal temperature in 50 percent of fevered rats; oral; 2 hours past drug
Method: A common property of useful anti-inflammatory agents is their ability to lower elevated body temperatures. […] Groups of ten female Charles River or Wistar rats (120-150 gm) are injected with a 20% water suspension of "Brewers Yeast" subcutaneously into the nape of the neck (10 ml/kg). The animals are starved (water ad lib.) and 18 hours later rectal temperatures are monitored (Tele-Thermometer, Yellow Springs Instrument Co., Inc., Yellow Springs, Ohio). Animals with a temperature ≥ 37.2°C. are considered fevered. Drugs are administered orally (10 ml/kg) using distilled water and, if insoluble, one drop of a dispersing agent, e.g. "Tween 80," per 10 ml. Temperatures are recorded 2 hours past drug. Significant activity is a reduction in rectal temperature ≥ 1° from the mean control temperature. The activity of the compounds tested is expressed as ED50, the dose (mg/kg) of a compound producing a reduction of ≥ 1° in rectal temperature of fevered rats from the mean fevered control temperature in 50 percent of the animals.

| Compound | ED50 [mg/kg] |
| --- | --- |
| O=C(O)c1cc(-n2c(-c3ccccc3)cc3c4ccccc4ccc32)ccc1O [3-(3-Carboxy-4-hydroxyphenyl)-2-phenylbenz[e]indole] | > 100 |
| O=C(O)c1cc(-n2c(-c3ccccc3)cc3c2CCc2ccccc2-3)ccc1O [3-(3-Carboxy-4-hydroxyphenyl)-4,5-dihydro-2-phenylbenz[e]indole] | 69 |
| CC(=O)Oc1ccccc1C(=O)O [Aspirin, reference compound] | 35 |
| CCCCC1C(=O)N(c2ccccc2)N(c2ccccc2)C1=O [Phenylbutazone, reference compound] | < 50 |

Tested on: not listed separately
Assay: Gastric irritation assay in fasted rats
Settings: rat, in vivo, po
Method: A common but undesirable side effect of anti-inflammatory agents is the production of gastric irritation in mammals. […] Groups of male or female rats (Wistar, Long Evans or Charles River), 150-180 gm, are utilized for this assay using 10 animals per dose group. The animals are starved for 48 hours (H2 O ad lib) prior to administration of drug orally at 10 ml/kg. Drugs are prepared using distilled water solutions or, if insoluble, 1 drop of a dispersing agent, e.g. "Tween 80"/10 ml, is used with homogenization. The control group receives the vehicle only (10 ml/kg). […] Stomachs are removed and examined for gastric irritation, which is defined as ulceration and/or hemorrhage of gastric mucosa. The presence of a single ulcer or hemorrhage spot is taken as positive and stomachs must be "clean" to be negative. A dose response is run at the peak time using at least four dose levels of test drug. In the table, gastric irritability is expressed as ID50, the dose (mg/kg) of compound producing irritation in 50 percent of the animals after seven hours.

| Compound | TD50 at 7 h [mg/kg] |
| --- | --- |
| CC(=O)Oc1ccccc1C(=O)O [Aspirin, reference compound] | 42 |

Same assay, conditions: rat, po

| Compound | TD50 at 7 h [mg/kg] |
| --- | --- |
| O=C(O)c1cc(-n2c(-c3ccccc3)cc3c4ccccc4ccc32)ccc1O [3-(3-Carboxy-4-hydroxyphenyl)-2-phenylbenz[e]indole] | > 200 |
| O=C(O)c1cc(-n2c(-c3ccccc3)cc3c2CCc2ccccc2-3)ccc1O [3-(3-Carboxy-4-hydroxyphenyl)-4,5-dihydro-2-phenylbenz[e]indole] | 300 to 350 |
| CC(=O)Oc1ccc(-n2c(-c3ccccc3)cc3c2CCc2ccccc2-3)cc1C(=O)O [3-(4-Acetoxy-3-carboxyphenyl)-4,5-dihydro-2-phenylbenz[e]indole] | > 300 |
| CCCCC1C(=O)N(c2ccccc2)N(c2ccccc2)C1=O [Phenylbutazone, reference compound] | 75 |

Tested on: adjuvant-induced arthritis in rats
Assay: Adjuvant-induced arthritis in rats
Type: in vivo
Settings: Rattus norvegicus, 504 h, read-out: % Inhibition of Edema on Day 21, Adjuvant Injected Paw

| Compound | inhibition in vivo at 200 mg/kg [%] |
| --- | --- |
| CC(=O)Oc1ccccc1C(=O)O [Aspirin, reference compound] | 37 |

Same assay, conditions: Rattus norvegicus, 504 h, read-out: % Inhibition of Edema on Day 21, Non-Injected Paw

| Compound | inhibition in vivo at 200 mg/kg [%] |
| --- | --- |
| CC(=O)Oc1ccccc1C(=O)O [Aspirin, reference compound] | 47 |

Same assay, conditions: Rattus norvegicus, 504 h; 10 mg/kg/day; rats; day 21; read-out: % Inhibition of Edema on Day 21, Adjuvant Injected Paw

| Compound | inhibition in vivo at 10 mg/kg [%] |
| --- | --- |
| O=C(O)c1cc(-n2c(-c3ccccc3)cc3c2CCc2ccccc2-3)ccc1O [3-(3-Carboxy-4-hydroxyphenyl)-4,5-dihydro-2-phenylbenz[e]indole] | 27 |

Same assay, conditions: Rattus norvegicus, 504 h; 10 mg/kg/day; rats; day 21; read-out: % Inhibition of Edema on Day 21, Non-Injected Paw

| Compound | inhibition in vivo at 10 mg/kg [%] |
| --- | --- |
| O=C(O)c1cc(-n2c(-c3ccccc3)cc3c2CCc2ccccc2-3)ccc1O [3-(3-Carboxy-4-hydroxyphenyl)-4,5-dihydro-2-phenylbenz[e]indole] | 29 |

Same assay, conditions: Rattus norvegicus, 504 h; 25 mg/kg/day; rats; day 21; read-out: % Inhibition of Edema on Day 21, Adjuvant Injected Paw

| Compound | inhibition in vivo at 25 mg/kg [%] |
| --- | --- |
| O=C(O)c1cc(-n2c(-c3ccccc3)cc3c4ccccc4ccc32)ccc1O [3-(3-Carboxy-4-hydroxyphenyl)-2-phenylbenz[e]indole] | 45 |
| O=C(O)c1cc(-n2c(-c3ccccc3)cc3c2CCc2ccccc2-3)ccc1O [3-(3-Carboxy-4-hydroxyphenyl)-4,5-dihydro-2-phenylbenz[e]indole] | 49 |

Same assay, conditions: Rattus norvegicus, 504 h; 25 mg/kg/day; rats; day 21; read-out: % Inhibition of Edema on Day 21, Non-Injected Paw

| Compound | inhibition in vivo at 25 mg/kg [%] |
| --- | --- |
| O=C(O)c1cc(-n2c(-c3ccccc3)cc3c4ccccc4ccc32)ccc1O [3-(3-Carboxy-4-hydroxyphenyl)-2-phenylbenz[e]indole] | 50 |
| O=C(O)c1cc(-n2c(-c3ccccc3)cc3c2CCc2ccccc2-3)ccc1O [3-(3-Carboxy-4-hydroxyphenyl)-4,5-dihydro-2-phenylbenz[e]indole] | 72 |

Same assay, conditions: Rattus norvegicus, 504 h; 50 mg/kg/day; rats; day 21; read-out: % Inhibition of Edema on Day 21, Adjuvant Injected Paw

| Compound | inhibition in vivo at 50 mg/kg [%] |
| --- | --- |
| O=C(O)c1cc(-n2c(-c3ccccc3)cc3c4ccccc4ccc32)ccc1O [3-(3-Carboxy-4-hydroxyphenyl)-2-phenylbenz[e]indole] | 70 |
| O=C(O)c1cc(-n2c(-c3ccccc3)cc3c2CCc2ccccc2-3)ccc1O [3-(3-Carboxy-4-hydroxyphenyl)-4,5-dihydro-2-phenylbenz[e]indole] | 69 |
| CC(=O)Oc1ccc(-n2c(-c3ccccc3)cc3c2CCc2ccccc2-3)cc1C(=O)O [3-(4-Acetoxy-3-carboxyphenyl)-4,5-dihydro-2-phenylbenz[e]indole] | 56 |
| CCCCC1C(=O)N(c2ccccc2)N(c2ccccc2)C1=O [Phenylbutazone, reference compound] | 60 |

Same assay, conditions: Rattus norvegicus, 504 h; 50 mg/kg/day; rats; day 21; read-out: % Inhibition of Edema on Day 21, Non-Injected Paw

| Compound | inhibition in vivo at 50 mg/kg [%] |
| --- | --- |
| O=C(O)c1cc(-n2c(-c3ccccc3)cc3c4ccccc4ccc32)ccc1O [3-(3-Carboxy-4-hydroxyphenyl)-2-phenylbenz[e]indole] | 70 |
| O=C(O)c1cc(-n2c(-c3ccccc3)cc3c2CCc2ccccc2-3)ccc1O [3-(3-Carboxy-4-hydroxyphenyl)-4,5-dihydro-2-phenylbenz[e]indole] | 81 |
| CC(=O)Oc1ccc(-n2c(-c3ccccc3)cc3c2CCc2ccccc2-3)cc1C(=O)O [3-(4-Acetoxy-3-carboxyphenyl)-4,5-dihydro-2-phenylbenz[e]indole] | 68 |
| CCCCC1C(=O)N(c2ccccc2)N(c2ccccc2)C1=O [Phenylbutazone, reference compound] | 71 |

Same assay, conditions: Rattus norvegicus, 504 h; 100 mg/kg/day; rats; day 21; read-out: % Inhibition of Edema on Day 21, Adjuvant Injected Paw

| Compound | inhibition in vivo at 100 mg/kg [%] |
| --- | --- |
| CC(=O)Oc1ccc(-n2c(-c3ccccc3)cc3c2CCc2ccccc2-3)cc1C(=O)O [3-(4-Acetoxy-3-carboxyphenyl)-4,5-dihydro-2-phenylbenz[e]indole] | 82 |

Same assay, conditions: Rattus norvegicus, 504 h; 100 mg/kg/day; rats; day 21; read-out: % Inhibition of Edema on Day 21, Non-Injected Paw

| Compound | inhibition in vivo at 100 mg/kg [%] |
| --- | --- |
| CC(=O)Oc1ccc(-n2c(-c3ccccc3)cc3c2CCc2ccccc2-3)cc1C(=O)O [3-(4-Acetoxy-3-carboxyphenyl)-4,5-dihydro-2-phenylbenz[e]indole] | 93 |

From patent US3931407A, “Method of treatment with and compositions containing condensed pyrroles bearing an N-phenyl substituent” (American Hoechst Corporation, priority 1974, dated 1976)
